Reference: patent US7799819B2, “7-Amido-isoindolyl compounds and their pharmaceutical uses” (Celgene Corporation, priority 2003, dated 2010)

melting point: 205 to 207 °C
SMILES: CCOc1cc([C@@H](CS(C)(=O)=O)N2Cc3c(Cl)ccc(NC(=O)CN4CCN(C)CC4)c3C2=O)ccc1OC [Example 30, (1S)—N-{7-Chloro-2-[1-(3-ethoxy-4-methoxy-phenyl)-2-methanesulfonyl-ethyl]-3-oxo-2,3-dihydro-1H-isoindol-4-yl}-2-(4-methyl-piperazin-1-yl)-acetamide]
